Laboratory results published in patent publication US20210379095A1, “Methods and Combination Therapy to Treat Biliary Tract Cancer” (ARRAY BIOPHARMA INC., priority 2018, published 2021).

Columns and labels:
[1] = tested on: programmed death-ligand 1 (PD-L1); test: Western blot of protein expression in BTC cells; format: cell-based; conditions: 48 hours
Procedure: (§1) The effect of binimetinib, 5-fluorouracil (5-FU), or combination of these drugs on cell viability was evaluated using eight BTC cell lines (SNU245, SNU308, SNU478, SNU869, SNU1079, SNU1196, TFK1, and HuCCT1). As capecitabine is converted to 5-FU in vivo, 5-FU was used as an […] of oral administration of capecitabine in this preclinical study in cell lines. In brief, confluent monolayers, which had been grown in 96 well plates, were exposed to drugs for 72 hours. Subsequently, cell viability was measured at 540 nm with a Multiskan GO microplate reader using a commercially available MTT assay, according to the manufacturer's directions. The Chou-Talalay method was used to assess a combination effect. Cells were also treated with drugs for 48 hours and the expression of thymidylate synthase (TS), programmed death-ligand 1 (PD-L1), and β-actin was determined using western blot analysis according to a published protocol. Actin was included as a loading control.

[2] = tested on: thymidylate synthase (TS); test: Western blot of protein expression in BTC cells; format: cell-based; conditions: 48 hours
Procedure: as §1, with “In brief, confluent monolayers, which had been grown in 96 well plates, were exposed to drugs for 72 hours.” left out, “Cells were also treated with drugs for 48 hours and the expression of thymidylate synthase (TS), programmed death-ligand 1 (PD-L1), and β-actin was determined using western blot analysis according to a published protocol.” left out

[3] = tested on: BTC cell lines (SNU245, SNU308, SNU478, SNU869, SNU1079, SNU1196, TFK1, and HuCCT1); test: MTT cell viability assay; format: cell-based; conditions: eight BTC cell lines, 72 hours exposure
Procedure: as §1

[4] = tested on: advanced or metastatic BTC; conditions: binimetinib monotherapy, advanced or metastatic BTC patients; cited from earlier work

Compound: O=c1[nH]cc(F)c(=O)[nH]1 [5-FU, 5-fluorouracil]
- PD-L1 expression [1]: induced PD-L1 expression
- thymidylate synthase (TS) expression [2]: upregulated

Compound: Cn1cnc2c(F)c(Nc3ccc(Br)cc3F)c(C(=O)NOCCO)cc21 [binimetinib, 6-(4-bromo-2-fluorophenylamino)-7-fluoro-3-methyl-3H-benzoimidazole-5-carboxylic acid (2-hydroxyethoxy)-amide]
- cell viability [3]: significant decreases in cell viability
- DCR [4]: 51%
- ORR [4]: 8%
- OS [4]: 4.8 months
- PFS [4]: 2.1 months
- thymidylate synthase (TS) expression [2]: downregulated
